# Measured values from ChEMBL document CHEMBL1201862, “PubChem BioAssay data set” (2004).
#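 Briefly, cells in 96-well plates were exposed to five compound concentrations for 48 h, and endpoints were estimated by linear interpolation. At the GI50, growth is halved.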 Calls of active or inactive are those of the source. Cut-off read from the data, not from the text of the source: active = GI50 up to about 1.1 µM and inactive = higher.
# Key:
# Assay in all cases: NCI-60 cell line screen, 48 h
# BT-549 = system: BT-549
# MCF7 = system: MCF7
# XF498 = system: XF498
# M19-MEL = system: M19-MEL
# DLD-1 = system: DLD-1
# DMS-273 = system: DMS-273
# LXFL 529 = system: LXFL 529
# SNB-78 = system: SNB-78
Structure (SMILES),GI50 (BT-549),GI50 (MCF7),GI50 (XF498),GI50 (M19-MEL),GI50 (DLD-1),GI50 (DMS-273),GI50 (LXFL 529),GI50 (SNB-78)
CC(=O)C1=C(C)N(c2ccc(C)cc2)C2(O)C=CC(=O)C3C(=O)N(c4ccccc4)C(=O)C132 (centres undefined),17.4 µM (inactive),8.3 µM (inactive),–,–,–,–,–,–
Cc1csc2c1C(=O)c1ccsc1C2=O,–,1.41 µM (inactive),2.35 µM (inactive),0.175 µM (active),2.68 µM (inactive),1.94 µM (inactive),3.42 µM (inactive),4.27 µM (inactive)
CC(C)(C)c1ccc2c(c1)S(=O)(=O)Nc1ccc(Cl)cc1NS(=O)(=O)c1cc(C(C)(C)C)ccc1OCCOCCOCCO2,–,–,–,62.4 µM (inactive),85.7 µM (inactive),56.8 µM (inactive),–,30.6 µM (inactive)
Cc1cc(S(=O)(=O)Nc2nc3cscc3c(=O)n2N)c(S)cc1Cl,55.1 µM (inactive),61.5 µM (inactive),–,–,–,–,–,–
Cc1cc2nc3n(c2cc1C)C(c1c(F)cccc1F)SC3 (centres undefined),28.1 µM (inactive),17.5 µM (inactive),–,–,–,–,–,–
CC(C(=O)N1c2ccccc2Sc2ccccc21)N1c2ccccc2Sc2ccccc21 (centres undefined),> 100 µM (inactive),42.9 µM (inactive),–,–,–,–,–,–
Cc1ccc2nc(-c3ccc(N4C(=O)C(Cl)C4c4ccc(Cl)cc4)cc3)sc2c1 (centres undefined),36.7 µM (inactive),14.6 µM (inactive),–,–,–,–,–,–
CNC(=S)N/N=C(\C)c1cc(OC)ccc1O,> 100 µM (inactive),–,–,–,–,–,–,–
CC1(C)OC(CCC#N)CN1C(=O)OCc1ccccc1 (centres undefined),20.7 µM (inactive),> 100 µM (inactive),–,–,–,–,–,–
Cc1nnc(N/N=C(/C(=O)C(C#N)c2ccccc2)C(C#N)c2ccccc2)n1N (centres undefined),–,–,–,2.74 µM (inactive),22.6 µM (inactive),17.7 µM (inactive),3.71 µM (inactive),> 51.1 µM (inactive)
CC(C)(CO)CNc1nc(N)nc(Cl)c1/C=N/O,23.6 µM (inactive),23.8 µM (inactive),–,–,–,–,–,–
O=C(CC1(O)C(=O)Nc2ccccc21)c1ccc(F)cc1 (centres undefined),–,–,> 100 µM (inactive),> 100 µM (inactive),> 100 µM (inactive),> 100 µM (inactive),> 100 µM (inactive),> 100 µM (inactive)
c1cc(C2N3CCCN2CC3)ccn1 (centres undefined),> 100 µM (inactive),37.8 µM (inactive),–,–,–,–,–,–
CC1CC(C)C(C(O)CC2CC(=O)N(c3ccccc3)C(=O)C2)C(O)C1 (centres undefined),–,–,–,> 100 µM (inactive),> 100 µM (inactive),> 100 µM (inactive),> 100 µM (inactive),> 100 µM (inactive)
CN(C)/C(F)=P\C(F)(F)F (centres undefined),–,–,> 100 µM (inactive),> 100 µM (inactive),> 100 µM (inactive),> 100 µM (inactive),> 100 µM (inactive),> 100 µM (inactive)
CC(C)=CC(=O)Cc1nc2ccc([N+](=O)[O-])cc2[nH]c1=O,–,–,41.3 µM (inactive),> 100 µM (inactive),72.1 µM (inactive),> 100 µM (inactive),53.7 µM (inactive),> 100 µM (inactive)
Cc1cccc(Nc2nn3c(=O)c4c5c(sc4nc3s2)CCCC5)c1,25.8 µM (inactive),6.17 µM (inactive),–,–,–,–,–,–
COc1ccc(C(=O)c2[nH]c(Nc3cc(C)ccn3)c(C(=S)Nc3ccccc3)c2N)cc1,19.6 µM (inactive),20.4 µM (inactive),–,–,–,–,–,–
O=C(c1cccc(F)c1F)N1CCc2c([nH]c3ccccc23)C1c1ccc2c(c1)OCO2 (centres undefined),40.3 µM (inactive),4.27 µM (inactive),–,–,–,–,–,–
CC(C)c1cc(OCC(O)CO)cc(C(C)C)c1 (centres undefined),–,–,> 100 µM (inactive),> 100 µM (inactive),> 100 µM (inactive),> 100 µM (inactive),> 100 µM (inactive),> 100 µM (inactive)
CCN1CCC(CNC(=O)c2ccc(N)cc2)N1CC (centres undefined),> 100 µM (inactive),> 100 µM (inactive),–,–,–,–,–,–
C=CC1(O)CCCC=C1COCc1ccccc1 (centres undefined),–,> 100 µM (inactive),–,–,–,–,–,–
CCOC(=O)c1c(C)nc2c(c1-c1cn(-c3ccccc3)nc1-c1ccccc1)C(=O)c1ccccc1-2,> 100 µM (inactive),–,–,–,–,–,–,–
COC1=C(Br)C(O)C2(C=C1Br)CC(C(=O)NCCCCNC(=O)C1=NOC3(C=C(Br)C(OC)=C(Br)C3O)C1)=NO2 (centres undefined),33.6 µM (inactive),21.8 µM (inactive),–,–,–,–,–,–
O=C(O)CN(c1ccccc1)S(=O)(=O)c1ccc(NC(=O)c2ccccc2)cc1,–,–,> 100 µM (inactive),> 100 µM (inactive),> 100 µM (inactive),> 100 µM (inactive),> 100 µM (inactive),–
Cc1ccc2c(c1)C(=O)c1nc(C)ccc1C2=O,53.7 µM (inactive),25.6 µM (inactive),–,–,–,–,–,–
COC(=O)c1ccc(Cc2cc(Cc3ccc(C(=O)OC)cc3)cc(Cc3ccc(C(=O)OC)cc3)c2)cc1,> 25 µM (inactive),> 25 µM (inactive),–,–,–,–,–,–
CN(C)CCn1cnc2ncccc2c1=O,–,–,> 100 µM (inactive),> 100 µM (inactive),> 100 µM (inactive),> 100 µM (inactive),> 100 µM (inactive),> 100 µM (inactive)
